The record followed here is US9247759B2, “Identification of human T2R receptors that respond to bitter compounds that elicit the bitter taste in compositions, and the use thereof in assays to identify compounds that inhibit (block) bitter taste in compositions and use thereof” (SENOMYX, INC., priority 2007, dated 2016).

For the experiment, the target named is hT2R8 (Homo sapiens (Human), UniProt Q9NYW2). Nature of the experiment: hT2R8 antagonist high-throughput FLIPR assay, stable cell line with G16g44, agonist andrographolide. Format: cell-based. To be noted: table after Example 12-37; read-out: hT2R8 IC50. A digest of the protocol: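 HEK293 cells stably co-expressing hT2R8 and chimeric G16g44, read on FLIPR. Test compounds added together with andrographolide (200 μM), which drives the receptor to 70–80% of maximal activity; antagonism seen as reduced agonist response.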
hT2R8, sequence (Q9NYW2 whole entry): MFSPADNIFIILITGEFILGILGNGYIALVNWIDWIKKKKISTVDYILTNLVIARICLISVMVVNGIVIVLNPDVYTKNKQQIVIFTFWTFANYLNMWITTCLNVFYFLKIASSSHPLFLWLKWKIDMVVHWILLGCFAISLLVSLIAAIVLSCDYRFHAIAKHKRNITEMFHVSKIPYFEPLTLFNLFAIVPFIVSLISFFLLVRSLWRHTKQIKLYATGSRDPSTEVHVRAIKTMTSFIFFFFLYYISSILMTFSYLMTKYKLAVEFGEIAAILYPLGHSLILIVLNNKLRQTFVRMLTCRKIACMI
For `COc1cccc(CN2C(=O)N(c3cnn(Cc4c(C)noc4C)c3)C(=O)C2(C)C)n1` [Example 12-40, 3-(1-((3,5-dimethylisoxazol-4-yl)methyl)-1H-pyrazol-4-yl)-1-((6-methoxypyridin-2-yl)methyl)-5,5-dimethylimidazolidine-2,4-dione], the IC50 (usually the concentration that inhibits the measured activity by half) was 0.08 µM. On to `Cc1noc(C)c1Cn1cc(N2C(=O)N(Cc3cccc(C#N)c3)C(C)(C)C2=O)cn1` [Example 12-42, 3-((3-(1-((3,5-dimethylisoxazol-4-yl)methyl)-1H-pyrazol-4-yl)-5,5-dimethyl-2,4-dioxoimidazolidin-1-yl)methyl)benzonitrile], for which the IC50 stood at 0.09 µM. As to `Cc1noc(C)c1Cn1cc(N2C(=O)N(Cc3cccc(O)c3O)C(C)(C)C2=O)cn1` [Example 12-43, 1-(2,3-dihydroxybenzyl)-3-(1-((3,5-dimethylisoxazol-4-yl)methyl)-1H-pyrazol-4-yl)-5,5-dimethylimidazolidine-2,4-dione], the IC50 stood at 0.1 µM. For the compound `Cc1noc(C)c1Cn1cc(N2C(=O)N(Cc3c(F)cccc3F)C(C)(C)C2=O)cn1` [Example 12-44, 1-(2,6-difluorobenzyl)-3-(1-((3,5-dimethylisoxazol-4-yl)methyl)-1H-pyrazol-4-yl)-5,5-dimethylimidazolidine-2,4-dione], the IC50 came to 0.1 µM. On to `Cc1noc(C)c1Cn1cc(N2C(=O)N(Cc3ccccc3F)C(C)(C)C2=O)cn1` [Example 12-45, 3-(1-((3,5-dimethylisoxazol-4-yl)methyl)-1H-pyrazol-4-yl)-1-(2-fluorobenzyl)-5,5-dimethylimidazolidine-2,4-dione], for which the IC50 is 0.11 µM. With `COc1ccc(CCN2C(=O)N(c3cnn(Cc4c(C)noc4C)c3)C(=O)C2(C)C)cc1OC` [Example 12-49, 1-(3,4-dimethoxyphenethyl)-3-(1-((3,5-dimethylisoxazol-4-yl)methyl)-1H-pyrazol-4-yl)-5,5-dimethylimidazolidine-2,4-dione], the IC50 was determined as 0.13 µM. `Cc1noc(C)c1Cn1cc(N2C(=O)N(CCc3cccc(F)c3)C(C)(C)C2=O)cn1` [Example 12-50, 3-(1-((3,5-dimethylisoxazol-4-yl)methyl)-1H-pyrazol-4-yl)-1-(3-fluorophenethyl)-5,5-dimethylimidazolidine-2,4-dione]: the IC50 came to 0.15 µM. On to `COc1ccc(CN2C(=O)N(c3cnn(Cc4c(C)noc4C)c3)C(=O)C2(C)C)nc1` [Example 12-51, 3-(1-((3,5-dimethylisoxazol-4-yl)methyl)-1H-pyrazol-4-yl)-1-((5-methoxypyridin-2-yl)methyl)-5,5-dimethylimidazolidine-2,4-dione], for which the IC50 is 0.19 µM. For `Cc1noc(C)c1Cn1cc(N2C(=O)N(Cc3ccncc3)C(C)(C)C2=O)cn1` [Example 12-52, 3-(1-((3,5-dimethylisoxazol-4-yl)methyl)-1H-pyrazol-4-yl)-5,5-dimethyl-1-(pyridin-4-ylmethyl)imidazolidine-2,4-dione], the half-maximal inhibitory concentration (IC50) turned out to be 0.19 µM. `Cc1noc(C)c1Cn1cc(N2C(=O)N(CCc3ccccc3F)C(C)(C)C2=O)cn1` [Example 12-53, 3-(1-((3,5-dimethylisoxazol-4-yl)methyl)-1H-pyrazol-4-yl)-1-(2-fluorophenethyl)-5,5-dimethylimidazolidine-2,4-dione]: the IC50 was 0.2 µM. In the case of `COc1ccc(OC)c(CN2C(=O)N(c3cnn(Cc4c(C)noc4C)c3)C(=O)C2(C)C)c1` [Example 12-54, 1-(2,5-dimethoxybenzyl)-3-(1-((3,5-dimethylisoxazol-4-yl)methyl)-1H-pyrazol-4-yl)-5,5-dimethylimidazolidine-2,4-dione], the IC50 was found to be 0.2 µM. For `COC(=O)c1cccc(CN2C(=O)N(c3cnn(Cc4c(C)noc4C)c3)C(=O)C2(C)C)c1` [Example 12-55] the value was 0.22 µM; for `Cc1noc(C)c1Cn1cc(N2C(=O)N(CCc3ccccc3)C(C)(C)C2=O)cn1` [Example 12-56, 3-(1-((3,5-dimethylisoxazol-4-yl)methyl)-1H-pyrazol-4-yl)-5,5-dimethyl-1-phenethylimidazolidine-2,4-dione], 0.23 µM; for `COC(=O)c1ccc(CN2C(=O)N(c3cnn(Cc4c(C)noc4C)c3)C(=O)C2(C)C)cc1` [Example 12-57, methyl 4-((3-(1-((3,5-dimethylisoxazol-4-yl)methyl)-1H-pyrazol-4-yl)-5,5-dimethyl-2,4-dioxoimidazolidin-1-yl)methyl)benzoate], 0.23 µM. For the compound `COc1ccccc1CCN1C(=O)N(c2cnn(Cc3c(C)noc3C)c2)C(=O)C1(C)C` [Example 12-58, 3-(1-((3,5-dimethylisoxazol-4-yl)methyl)-1H-pyrazol-4-yl)-1-(2-methoxyphenethyl)-5,5-dimethylimidazolidine-2,4-dione], the IC50 turned out to be 0.24 µM. For `Cc1noc(C)c1Cn1cc(N2C(=O)N(Cc3cc(F)ccc3F)C(C)(C)C2=O)cn1` [Example 12-59, 1-(2,5-difluorobenzyl)-3-(1-((3,5-dimethylisoxazol-4-yl)methyl)-1H-pyrazol-4-yl)-5,5-dimethylimidazolidine-2,4-dione] the value was 0.24 µM; for `COc1cccc(CCN2C(=O)N(c3cnn(Cc4c(C)noc4C)c3)C(=O)C2(C)C)c1` [Example 12-60, 3-(1-((3,5-dimethylisoxazol-4-yl)methyl)-1H-pyrazol-4-yl)-1-(3-methoxyphenethyl)-5,5-dimethylimidazolidine-2,4-dione], 0.25 µM. As for `Cc1noc(C)c1Cn1cc(N2C(=O)N(Cc3ccccn3)C(C)(C)C2=O)cn1` [Example 12-61, 3-(1-((3,5-dimethylisoxazol-4-yl)methyl)-1H-pyrazol-4-yl)-5,5-dimethyl-1-(pyridin-2-ylmethyl)imidazolidine-2,4-dione], the IC50 stood at 0.26 µM. Take `Cc1noc(C)c1Cn1cc(N2C(=O)N(Cc3ccc4c(c3)OCCO4)C(C)(C)C2=O)cn1` [Example 12-62, 1-((2,3-dihydrobenzo[b][1,4]dioxin-6-yl)methyl)-3-(1-((3,5-dimethylisoxazol-4-yl)methyl)-1H-pyrazol-4-yl)-5,5-dimethylimidazolidine-2,4-dione]: the IC50 worked out at 0.27 µM. On to `Cc1noc(C)c1Cn1cc(N2C(=O)N(Cc3cccc(OCCO)c3)C(C)(C)C2=O)cn1` [Example 12-63, 3-(1-((3,5-dimethylisoxazol-4-yl)methyl)-1H-pyrazol-4-yl)-1-(3-(2-hydroxyethoxy)benzyl)-5,5-dimethylimidazolidine-2,4-dione], for which the IC50 came out at 0.28 µM. The result for `COc1cccc(CN2C(=O)N(c3cnn(Cc4c(C)noc4C)c3)C(=O)C2(C)C)c1OC` [Example 12-64, 1-(2,3-dimethoxybenzyl)-3-(1-((3,5-dimethylisoxazol-4-yl)methyl)-1H-pyrazol-4-yl)-5,5-dimethylimidazolidine-2,4-dione] reads 0.3 µM; that for `COc1cccc(F)c1CN1C(=O)N(c2cnn(Cc3c(C)noc3C)c2)C(=O)C1(C)C` [Example 12-65, 3-(1-((3,5-dimethylisoxazol-4-yl)methyl)-1H-pyrazol-4-yl)-1-(2-fluoro-6-methoxybenzyl)-5,5-dimethylimidazolidine-2,4-dione], 0.31 µM; that for `Cc1noc(C)c1Cn1cc(N2C(=O)N(Cc3cccc(F)c3F)C(C)(C)C2=O)cn1` [Example 12-66, 1-(2,3-difluorobenzyl)-3-(1-((3,5-dimethylisoxazol-4-yl)methyl)-1H-pyrazol-4-yl)-5,5-dimethylimidazolidine-2,4-dione], 0.31 µM. Regarding `Cc1noc(C)c1Cn1cc(N2C(=O)N(Cc3ccccc3)C(C)(C)C2=O)cn1` [Example 12-67, 1-benzyl-3-(1-((3,5-dimethylisoxazol-4-yl)methyl)-1H-pyrazol-4-yl)-5,5-dimethylimidazolidine-2,4-dione], the IC50 came to 0.32 µM.

Regarding `Cc1noc(C)c1Cn1cc(N2C(=O)N(CCc3ccc(F)cc3)C(C)(C)C2=O)cn1` [Example 12-69, 3-(1-((3,5-dimethylisoxazol-4-yl)methyl)-1H-pyrazol-4-yl)-1-(4-fluorophenethyl)-5,5-dimethylimidazolidine-2,4-dione], the IC50 came out at 0.33 µM. Take `Cc1noc(C)c1Cn1cc(N2C(=O)N(CCc3cc(F)cc(F)c3)C(C)(C)C2=O)cn1` [Example 12-70, 1-(3,5-difluorophenethyl)-3-(1-((3,5-dimethylisoxazol-4-yl)methyl)-1H-pyrazol-4-yl)-5,5-dimethylimidazolidine-2,4-dione]: the IC50 amounted to 0.4 µM. Turning to `Cc1noc(C)c1Cn1cc(N2C(=O)N(Cc3ccn(C)n3)C(C)(C)C2=O)cn1` [Example 12-71, 3-(1-((3,5-dimethylisoxazol-4-yl)methyl)-1H-pyrazol-4-yl)-5,5-dimethyl-1-((1-methyl-1H-pyrazol-3-yl)methyl)imidazolidine-2,4-dione], the IC50 came out at 0.42 µM. With `Cc1noc(C)c1Cn1cc(N2C(=O)N(Cc3cccc(O)n3)C(C)(C)C2=O)cn1` [Example 12-72, 3-(1-((3,5-dimethylisoxazol-4-yl)methyl)-1H-pyrazol-4-yl)-1-((6-hydroxypyridin-2-yl)methyl)-5,5-dimethylimidazolidine-2,4-dione], the IC50 is 0.44 µM. `Cc1noc(C)c1Cn1cc(N2C(=O)N(Cc3cccc(C(=O)O)c3)C(C)(C)C2=O)cn1` [Example 12-73, 3-((3-(1-((3,5-dimethylisoxazol-4-yl)methyl)-1H-pyrazol-4-yl)-5,5-dimethyl-2,4-dioxoimidazolidin-1-yl)methyl)benzoic acid]: the IC50 was determined as 0.46 µM. In the case of `Cc1noc(C)c1Cn1cc(N2C(=O)N(Cc3ccc(F)cc3F)C(C)(C)C2=O)cn1` [Example 12-74, 1-(2,4-difluorobenzyl)-3-(1-((3,5-dimethylisoxazol-4-yl)methyl)-1H-pyrazol-4-yl)-5,5-dimethylimidazolidine-2,4-dione], the IC50 is 0.53 µM.

Consider `COC(=O)COc1cccc(CN2C(=O)N(c3cnn(Cc4c(C)noc4C)c3)C(=O)C2(C)C)c1` [Example 12-75, methyl 2-(3-((3-(1-((3,5-dimethylisoxazol-4-yl)methyl)-1H-pyrazol-4-yl)-5,5-dimethyl-2,4-dioxoimidazolidin-1-yl)methyl)phenoxy)acetate], for which the IC50 is 0.53 µM.
